Results on five molecules are retold here after paper PMC10891803, “Seleno-Warfare against Cancer: Decoding Antitumor Activity of Novel Acylselenoureas and Se-Acylisoselenoureas” (Pharmaceutics, 2024).

Data set [1] relates to HTB-54. The data set can be described thus: MTT cell viability assay, HTB-54. The data set is classed as cell-based, human. The settings on record: 48 h; for percentage of cell growth, HTB-54: 10 µM, MTT screening (Figure S1); for IC50: Homo sapiens, HTB-54, MTT, mean ± SD of three experiments, read-out: IC50 HTB-54 (Lung). As to the method: (§1) The cell lines were purchased from the American Type Culture Collection (ATCC). The four tumor cell lines used were as follows: MDA-MB-231 (triple-negative breast cancer), HTB-54 (lung cancer), DU-145 (prostate cancer), and HCT-116 (colon cancer), and the non-tumoral cell line 185-B5 (mammary tissue) were grown in Roswell Park Memorial Institute (RPMI) 1640 medium culture (Thermo Scientific, USA), supplemented with 10% fetal bovine serum (FBS) (Thermo Scientific, USA) and 1% of antibiotics (10,000 units/mL penicillin and 10 mg/mL streptomycin (Thermo Scientific, USA)). Cells were preserved in tissue culture flasks at 37 °C and 5% CO2. The culture medium was replaced every two to three days.
(§2) Cell viability was determined using the MTT colorimetric assay. A total of 10,000 cells were seeded in each well in a 96-well plate for 24 h. Then, cells were incubated with the corresponding concentration of each tested compound and with DMSO (1%) as control for 48 h. Each compound was dissolved in DMSO at a stock concentration of 0.01 M. Firstly, each compound was tested at 2 concentrations (10 µM and 50 µM) in four human tumoral cell lines MDA-MB-231, HTB-54, DU-145, and HCT-116. Serial dilutions from stock concentration with culture medium were prepared. […] The cell viability was determined by the addition of 20 µL of MTT and its incubation for 2.5 h. Later, the culture medium was removed, and 50 µL of DMSO was added to dissolve formazan crystals. The absorbance was measured at 550 nm. Inhibitory concentration 50 (IC50) and selectivity index (SI) were calculated. Three different experiments were performed independently.
(§3) Cell viability results are expressed as the mean ± standard deviation (SD), and experiments were independently performed thrice in triplicates. IC50 values were determined using a non-linear curve regression analysis calculated by OriginPro 9.0 software.
Background: Formazan colour is commonly taken as a measure of viable cells.

For data set [2], the system named is 184-B5. The data set can be described thus: MTT cell viability assay, non-malignant 184-B5. Type of data set: cell-based. The settings on record: Homo sapiens, 48 h, mean ± SD of three experiments, read-out: IC50 184-B5 (Breast, non-tumoral). As to the method:
as §1, §2, §3

Data set [3] has as its system MDA-MB-231. The data set can be described thus: MTT cell viability assay, MDA-MB-231. The data set is classed as cell-based, human. Particulars: for percentage of cell growth, MDA-MB-231: 10 µM, MTT screening (Figure S1); for percentage of cell growth, MDA-MB-231 / IC50: 48 h; for IC50: Homo sapiens, MDA-MB-231, MTT, mean ± SD of three experiments, read-out: IC50 MDA-MB-231 (Breast); for Selectivity index (SI): IC50 184-B5/IC50 MDA-MB-231. As to the method:
as §1, §2, §3

In data set [4] the test system is MDA-MB-231, HTB-54, DU-145, and HCT-116. Briefly: MTT initial screening in four tumor cell lines. The data set is classed as cell-based. Particulars: Homo sapiens, in at least three cell lines, 48 h, read-out: cell growth inhibition. The protocol: as §2
The test system of data set [5] is panel of 60 cancer cell lines. Briefly: NCI60 One-Dose screening. Type of data set: cell-based. Particulars: 1·10^−5 M, 48 h, mean of 60 cancer cell lines. The protocol: (§4) The ten compounds with the highest cell growth inhibition activity were submitted to the Developmental Therapeutics Program (DTP) of the National Cancer Institute (NCI). The assay consists of the evaluation of the cytotoxicity by a One-Dose screening at 10^−5 M against a panel of 60 cancer cell lines of different tumors (leukemia, lung, central nervous system (CNS), melanoma, ovarian, renal, prostate, and breast cancer cell lines). […] A range of 5000–40,000 cells/well were seeded and cultured in RPMI 1640 containing 5% of FBS and 2 mM L-glutamine and were inoculated into 96-well microtiter plates in 100 µL. The microtiter plates are incubated at 37 °C and 5% humidified CO2 for 24 h prior to the addition of experimental drugs. After that, an experimental drug was added, and the microtiter was incubated for 48 h.

The subject of data set [6] is panel of 60 cancer cell lines. Briefly: NCI60 Five-Dose assay. Particulars: Five-Dose assay 0.01–100 µM, 48 h, 60 cell line panel. Type of data set: cell-based. As to the method:
as §4

In data set [7] the test system is HCT-116. Briefly: MTT cell viability assay, HCT-116. The settings on record: 10 µM, 48 h, MTT screening (Figure S1). The data set is classed as cell-based, human. As to the method:
as §1, §2, §3

In data set [8] the test system is DU-145. The data set can be described thus: MTT cell viability assay, DU-145. The settings on record: 48 h; for percentage of cell growth, DU-145: 10 µM, MTT screening (Figure S1); for IC50: Homo sapiens, DU-145, MTT, mean ± SD of three experiments, read-out: IC50 DU-145 (Prostate). The data set is classed as cell-based, human. As to the method: as §1, §2, §3
Data set [9] has as its system MDA-MB-231, HTB-54, and DU-145. The data set can be described thus: MTT dose-response in the three tumoral cell lines. Type of data set: cell-based, human. Particulars: 48 h, read-out: IC50 toward the tumoral cell lines. As to the method: as §2, §3
For data set [10], the system named is DU-145 cells. Briefly: Muse Caspase-3/7 assay. The data set is classed as cell-based, human. The settings on record: DU-145, 2.5 and 5 µM, 48 h. The protocol:
(§5) The apoptosis assays were conducted using the Muse Caspase-3/7 assay kit and the Annexin V/7-AAD kit (EMD Millipore, Darmstadt, Germany) following the manufacturer’s instructions. Initially, DU-145 cells were seeded in 6-well plates at a density of 1 × 10^5 cells per well. After 24 h of incubation, the cells received treatment with 2.5 µM and 5 µM of compound 4. Subsequently, the cells were incubated for 48 h. Upon completion of the treatment period, the cells were harvested using enzyme-free Cell Dissociation Buffer. The samples were then subjected to the appropriate dyes according to the manufacturer’s instructions and analyzed using the Muse Cell Analyzer (Merck Millipore, Darmstadt, Germany).

Data set [11] has as its system DU-145 cells. Briefly: Muse Annexin V/7-AAD apoptosis assay. The data set is classed as cell-based, human. Particulars: DU-145, 2.5 μM, 48 h. As to the method: as §5
Apoptosis was assessed using the Muse Annexin V & Dead Cell assay kit following the manufacturer’s guidelines.

Data set [12] deals with apoptotic proteins in DU-145 cells. The data set can be described thus: Western blot of apoptotic proteins. Particulars: DU-145, 5 µM, 24 h. The data set is classed as cell-based, human. The protocol: Western blot analysis was conducted to evaluate changes in protein expression levels before and after treatment. In brief, DU-145 cells were treated with 5 µM of compound 4, and upon completing the designated treatment duration, cell lysis was achieved using RIPA buffer (Thermo Scientific, USA), supplemented with a protease inhibitor cocktail (Thermo Scientific, USA). Subsequently, the resulting lysates were chilled on ice for 30 min and then centrifuged at 10,000 rpm for 15 min to remove cellular debris. Total protein concentration was determined using the BCA assay (Thermo Scientific, USA). Equivalent quantities of cell lysates were separated using NuPAGE 4–12% gels (Life Technologies, Carlsbad, CA, USA), followed by electro-transfer onto a PVDF membrane. Various antibodies were employed to investigate protein expression levels, with detection accomplished using the Enhanced Chemiluminescent reagent (Life Technologies, USA). All antibodies utilized in this study were procured from Cell Signaling Technologies (Danvers, MA, USA).

In data set [13] the test system is MDA-MB-231 cells. The settings on record: cited from earlier work.
Data set [14] concerns DU-145. Also on record: method as in PMID 11306488. Particulars: cited from earlier work.

Read-outs that look alike come from different tables or passages of the source.

Usually IC50 stands for the midpoint of a concentration-inhibition curve. By inhibition is commonly meant the share of the control response that was lost under treatment. As a reminder, the GI50 is the concentration giving 50% growth inhibition. Lower therefore signals more potent growth inhibition. Broadly, the melting point is the temperature of the solid-liquid transition. `CC(=O)Oc1ccccc1C(=O)[Se]C(=NC1CCCCC1)NC1CCCCC1` [Compound 1]: the melting point is 96 to 97 °C. Further, in [1], the “percentage of cell growth, HTB-54” value is -52.60% and the IC50 amounted to 8.31 ± 1.01 µM. The IC50 in data set [2] was 15.8 ± 1.33 µM. In [3], the “percentage of cell growth, MDA-MB-231” value is 39.10%; the IC50 was 8.56 ± 0.1 µM; the “Selectivity index (SI)” value stood at 1.84. Further, the inhibition at 10 µM in [4] is over 50%. Moreover, the “mean value of cell growth, One-Dose assay” value (“mean value of cell growth” for short) in [5] is recorded as −68.50%. Besides, the GI50 in data set [6] is under 2 µM. Besides, the “percentage of cell growth, HCT-116” value in [7] is listed as 94.15%. In addition, in [8], the “percentage of cell growth, DU-145” value is -96.27% and the IC50 was found to be 5.17 ± 0.32 µM.
Turning to `CC(=O)Oc1ccccc1C(=O)[Se]C(=NC(C)C)NC(C)C` [Compound 4], in data set [9], the IC50 was under 7.5 µM. Further, the IC50 in data set [9] (Homo sapiens) was under 10 µM. Moreover, in data set [1], the “percentage of cell growth, HTB-54” value was -34.81% and the IC50 came out at 7.2 ± 1.81 µM. Moreover, in [2], the IC50 was determined as 9.6 ± 0.97 µM. Besides, in [3], the “percentage of cell growth, MDA-MB-231” value is on record as -41.78%; the IC50 worked out at 5.48 ± 0.42 µM; the “Selectivity index (SI)” value was 1.75. Moreover, the inhibition at 10 µM in data set [4] is over 50%. For the same molecule, in [5], the “mean value of cell growth” value is recorded as −67.93%. In addition, in [10], the “caspase 3/7 activity” value was “dose-dependent increase”. The molecule further registered a GI50 in [6] of under 2 µM. Moreover, in data set [7], the “percentage of cell growth, HCT-116” value is 36.77%. Also, the “cells exhibiting signs of apoptosis” value in [11] is “over 25%”. Further, in data set [12], the Bax expression result is given as “upregulation”; the Bcl-2 expression entry is recorded as “Downregulation”; the “caspase-3 cleavage and activation” value was “increased the cleavage and activation”; the “expression of pro-caspase-9” value was “reduction”. Moreover, in [8], the “percentage of cell growth, DU-145” value is reported as -82.47% and the IC50 worked out at 5.06 ± 0.02 µM.
In turn, `CC(C)NC(=[Se])NC(=O)c1ccccc1` [Compound 15] registered a melting point of 125 to 127 °C. In addition, in [1], the “percentage of cell growth, HTB-54” value is reported as -57.90% and the IC50 came to 26.4 ± 16.9 µM. Also, the IC50 in data set [2] was 8.51 ± 4.81 µM. Also, in data set [3], the “percentage of cell growth, MDA-MB-231” value is listed as -59.41%; the IC50 was 24.5 ± 7.55 µM; the “Selectivity index (SI)” value is given as 0.34. Besides, the inhibition at 10 µM in data set [4] is over 50%. Moreover, the “mean value of cell growth” value in [5] is on record as −31.58%. For the same molecule, the GI50 in data set [6] was under 2 µM. Further, the “percentage of cell growth, HCT-116” value in data set [7] was 123.90%. Also, in data set [8], the “percentage of cell growth, DU-145” value is listed as -80.57% and the IC50 came out at 5.19 ± 1.55 µM.
Turning to `O=[Se]=O` [SeO2], the cell viability result in data set [13] (MDA-MB-231) was “at least 50%”.
In the case of `[Se]` [elemental Se], the “type of cell death” value in [14] is recorded as “apoptotic cell death”. The “effect on cell growth” value in data set [13] (MDA-MB-231 cells incubated alone with Se) was “no effect on cell growth”.
